Tests used:
22Rv1 cells = assay: Cell proliferation assay (CellTiter-Glo, 5-day exposure), 22Rv1; format: cell-based; conditions: 22Rv1, 1000 cells/well, Th-227 labelled at 375 kBq/nmol, mean of 1 to 6 experiments
Experimental: (§1) Inhibition of cell proliferation of Thorium-227 labeled PMSA SMOL ligands was tested different prostate cancer cell lines, namely 22Rv1, VCaP, C4-2 (all from ATCC, Manassas, Va., USA) and LNCaP (DMSZ, Braunschweig). Cells were seeded using the following conditions in 384 well plates (Corning) in 30 μl of growth media at 4000 cells/well for VCaP cells and 1000 cells/well for 22Rv1, C4-2 and LNCaP cells.
(§2) Cells were cultivated an incubator at 37° C. and 5% C02 over night. […] In sister plates cell viability at treatment start (d=0) was determined using CellTiter-Glo® assay (CTG, Promega, Madison, Wis., USA), by adding 30 μl per well CTG solution, incubation for 10 min and reading of Luminescence in a PheraStarFSX instrument (BMG Labtech). After a 5-day exposure in the presenced of test compounds, cell viability of treated or untreated control cells was determined again using CellTiter-Glo® assay (Promega, Madison, Wis., USA). […] The DRC software is a Biobook Spreadsheet that was developed by Bayer AG and Bayer Business Services on the IDBS E-Workbook Suite platform (IDBS: ID Business Solutions Ltd., Guildford, UK).

[1] = test system: LNCaP human prostate cancer cells; assay: LNCaP xenograft efficacy study (T/C tumor area); format: in vivo, SCID mice; conditions: Example IV; day 36 after start of therapy; once 1 MBq/kg
Experimental: (§3) SCID mice were randomly assigned to experimental groups, ten animals per group (efficacy) or n=3-5 per time point of biodistribution study. At the initiation of the study, a testosterone pellet was subcutaneously transplanted, the animals were shaved, tattooed and each cage was labeled with the cage number, study number and number of animals per cage.
(§4) LNCaP human prostate cancer cells were cultured as described according to the supplier's protocols. Cells were harvested for transplantation in a subconfluent (70%) state. Animals were injected with 5×10^6 LNCaP cells suspended in 100% Matrigel subcutaneously into the flank of the mice.
Efficacy study: When tumors reached a predetermined size in mice of 35-50 mm^2 animals were randomized into treatment and control groups (n=10 animals/group) and treatment with the defined radioactive dose was started. The i.v. application volume was 100 μl/mice.
Tumor response was assessed by determination of the tumor area (product of the longest diameter and its perpendicular) using a caliper. The animal body weight was monitored as a measure for treatment-related toxicity. Measurement of tumor area and body weight was performed two to three times weekly.
Animals were sacrificed when showing signs of toxicity (>20% body weight loss) or when tumors reached a size of approximately 200 mm^2.
Tumor growth inhibition is presented as T/C ratio (Treatment/Control) calculated with tumor areas when the vehicle control group had to be closed.

VCaP cells = assay: Cell proliferation assay (CellTiter-Glo, 5-day exposure), VCaP; format: cell-based; conditions: 4000 cells/well, Th-227 labelled at 375 kBq/nmol, mean of 1 to 6 experiments
Experimental: as §1, §2

[2] = Biodistribution study in LNCaP tumor-bearing mice (Th227 counted in organs); format: in vivo, SCID mice; conditions: 1500 kBq/kg
Experimental: as §3, §4
Biodistribution study: When tumors reached a predetermined size in mice of ˜50 mm^2 animals were randomized into groups (n=3 animals/time point) and the radioactive compound was once applied intravenously. The i.v. application volume was 100 μl/mice.
At the predetermined time point, n=3 animals were sacrificed, the organs removed, weight and measured in a Germanium detector to count the Th227 in the sample.

C4-2 cells = assay: Cell proliferation assay (CellTiter-Glo, 5-day exposure), C4-2; format: cell-based; conditions: C4-2, 1000 cells/well, Th-227 labelled at 375 kBq/nmol, mean of 1 to 6 experiments
Experimental: as §1, §2

## Cc1cc(C(=O)NCCN(CCCN(CCNC(=O)c2cc(C)n(CC(=O)O)c(=O)c2[O-])CCNC(=O)c2cc(C)n(CC(=O)NCC3CCC(C(=O)NC(Cc4cnc5ccccc5c4)C(=O)NCCCCC(NC(=O)NC(CCC(=O)O)C(=O)O)C(=O)O)CC3)c(=O)c2[O-])CCNC(=O)c2cc(C)n(CC(=O)NCC3CCC(C(=O)NC(Cc4cnc5ccccc5c4)C(=O)NCCCCC(NC(=O)NC(CCC(=O)O)C(=O)O)C(=O)O)CC3)c(=O)c2[O-])c([O-])c(=O)n1CC(=O)O.[227Th+4] (stereo not shown) [Example 22-C dimer-227Th]
22Rv1 cells
  Proliferation assay on cancer cell lines by TTCs Default Pivot #3 IC50 [kBq/mL] 22Rv1 1000cells 375kBq/nmol (mean): 0.89 kBq/mL
[1]
  T/Carea: 0.67
VCaP cells
  Proliferation assay on cancer cell lines by TTCs Default Pivot #3 IC50 [kBq/mL] VCap 4000cells 375kBq/nmol (mean): 3.65 kBq/mL
[2]; 0.25 h
  Th-227 in Blood: 3.35% ID Th-227/g organ
  Th-227 in Liver: 1.79% ID Th-227/g organ
  Th-227 in Spleen: 13.87% ID Th-227/g organ
  Th-227 in Tumor: 4.57% ID Th-227/g organ
  Th-227 in bone: 2.50% ID Th-227/g organ
  Th-227 in brain: 0.13% ID Th-227/g organ
  Th-227 in kidney: 61.44% ID Th-227/g organ
  Th-227 in large intestine: 0.87% ID Th-227/g organ
  Th-227 in lung: 3.56% ID Th-227/g organ
  Th-227 in muscle: 1.27% ID Th-227/g organ
  Th-227 in prostate: 5.47% ID Th-227/g organ
  Th-227 in salivary glands: 2.63% ID Th-227/g organ
  Th-227 in small intestine: 1.64% ID Th-227/g organ
[2]; 1 hr
  Th-227 in Blood: 0.53% ID Th-227/g organ
  Th-227 in Liver: 0.41% ID Th-227/g organ
  Th-227 in Spleen: 8.93% ID Th-227/g organ
  Th-227 in Tumor: 4.49% ID Th-227/g organ
  Th-227 in bone: 1.12% ID Th-227/g organ
  Th-227 in brain: 0.01% ID Th-227/g organ
  Th-227 in kidney: 96.67% ID Th-227/g organ
  Th-227 in large intestine: 0.23% ID Th-227/g organ
  Th-227 in lung: 1.30% ID Th-227/g organ
  Th-227 in muscle: 0.28% ID Th-227/g organ
  Th-227 in prostate: 1.66% ID Th-227/g organ
  Th-227 in salivary glands: 0.69% ID Th-227/g organ
  Th-227 in small intestine: 0.38% ID Th-227/g organ
[2]; 4 hr
  Th-227 in Blood: 0.10% ID Th-227/g organ
  Th-227 in Liver: 0.60% ID Th-227/g organ
  Th-227 in Spleen: 1.68% ID Th-227/g organ
  Th-227 in Tumor: 2.18% ID Th-227/g organ
  Th-227 in bone: 0.74% ID Th-227/g organ
  Th-227 in brain: 0.00% ID Th-227/g organ
  Th-227 in kidney: 45.26% ID Th-227/g organ
  Th-227 in large intestine: 0.29% ID Th-227/g organ
  Th-227 in lung: 0.38% ID Th-227/g organ
  Th-227 in muscle: 0.05% ID Th-227/g organ
  Th-227 in prostate: 0.20% ID Th-227/g organ
  Th-227 in salivary glands: 0.36% ID Th-227/g organ
  Th-227 in small intestine: 0.21% ID Th-227/g organ
[2]; 24 h
  Th-227 in Blood: 0.02% ID Th-227/g organ
  Th-227 in Liver: 078% ID Th-227/g organ
  Th-227 in Spleen: 1.96% ID Th-227/g organ
  Th-227 in Tumor: 2.23% ID Th-227/g organ
  Th-227 in bone: 0.46% ID Th-227/g organ
  Th-227 in brain: 0.00% ID Th-227/g organ
  Th-227 in kidney: 11.35% ID Th-227/g organ
  Th-227 in large intestine: 0.21% ID Th-227/g organ
  Th-227 in lung: 0.25% ID Th-227/g organ
  Th-227 in muscle: 0.00% ID Th-227/g organ
  Th-227 in prostate: 0.02% ID Th-227/g organ
  Th-227 in salivary glands: 0.18% ID Th-227/g organ
  Th-227 in small intestine: 0.10% ID Th-227/g organ
[2]; 96 h
  Th-227 in Blood: 0.00% ID Th-227/g organ
  Th-227 in Liver: 0.31% ID Th-227/g organ
  Th-227 in Spleen: 0.43% ID Th-227/g organ
  Th-227 in Tumor: 0.66% ID Th-227/g organ
  Th-227 in bone: 0.83% ID Th-227/g organ
  Th-227 in brain: 0.00% ID Th-227/g organ
  Th-227 in kidney: 2.18% ID Th-227/g organ
  Th-227 in large intestine: 0.04% ID Th-227/g organ
  Th-227 in lung: 0.16% ID Th-227/g organ
  Th-227 in muscle: 0.00% ID Th-227/g organ
  Th-227 in prostate: 0.00% ID Th-227/g organ
  Th-227 in salivary glands: 0.19% ID Th-227/g organ
  Th-227 in small intestine: 0.04% ID Th-227/g organ
C4-2 cells
  Proliferation assay on cancer cell lines by TTCs Default Pivot #3 IC50 [kBq/mL] C4-2 1000cells 375kBq/nmol (mean): 2.56 kBq/mL

## Cc1cc(C(=O)NCCN(CCCN(CCNC(=O)c2cc(C)n(CC(=O)NCC3CCC(C(=O)NC(Cc4cnc5ccccc5c4)C(=O)NCCCCC(NC(=O)NC(CCC(=O)O)C(=O)O)C(=O)O)CC3)c(=O)c2[O-])CCNC(=O)c2cc(C)n(CC(=O)NCC3CCC(C(=O)NC(Cc4cnc5ccccc5c4)C(=O)NCCCCC(NC(=O)NC(CCC(=O)O)C(=O)O)C(=O)O)CC3)c(=O)c2[O-])CCNC(=O)c2cc(C)n(CC(=O)NCC3CCC(C(=O)NC(Cc4cnc5ccccc5c4)C(=O)NCCCCC(NC(=O)NC(CCC(=O)O)C(=O)O)C(=O)O)CC3)c(=O)c2[O-])c([O-])c(=O)n1CC(=O)O.[227Th+4] (stereo not shown) [Example 22-C trimer-227Th]
22Rv1 cells
  Proliferation assay on cancer cell lines by TTCs Default Pivot #3 IC50 [kBq/mL] 22Rv1 1000cells 375kBq/nmol (mean): 0.84 kBq/mL
[1]
  T/Carea: 0.64
VCaP cells
  Proliferation assay on cancer cell lines by TTCs Default Pivot #3 IC50 [kBq/mL] VCap 4000cells 375kBq/nmol (mean): 2.62 kBq/mL
C4-2 cells
  Proliferation assay on cancer cell lines by TTCs Default Pivot #3 IC50 [kBq/mL] C4-2 1000cells 375kBq/nmol (mean): 1.82 kBq/mL

## O=C([O-])CN1CCN(CC(=O)[O-])CCN(CC(=O)Nc2ccc(CC(=O)N[C@@H](Cc3ccc4ccccc4c3)C(=O)NCCCC[C@H](NC(=O)N[C@@H](CCC(=O)O)C(=O)O)C(=O)O)cc2)CCN(CC(=O)[O-])CC1.[227Th+4] [Example 23-B-227Th, [^227Th]Thorium-(4S,11S,15S)-4-[(naphthalen-2-yl)methyl]-2,5,13-trioxo-1-[4-(2-{4,7,10-tris[(carboxy-kappaO)methyl]-1,4,7,10-tetraazacyclododecan-1-yl-kappa^4N^1,N^4,N^7,N^10}acetamido)phenyl]-3,6,12,14-tetraazaheptadecane-11,15,17-tricarboxylate]
22Rv1 cells
  Proliferation assay on cancer cell lines by TTCs Default Pivot #3 IC50 [kBq/mL] 22Rv1 1000cells 375kBq/nmol (mean): 0.96 kBq/mL
VCaP cells
  Proliferation assay on cancer cell lines by TTCs Default Pivot #3 IC50 [kBq/mL] VCap 4000cells 375kBq/nmol (mean): 3 kBq/mL
C4-2 cells
  Proliferation assay on cancer cell lines by TTCs Default Pivot #3 IC50 [kBq/mL] C4-2 1000cells 375kBq/nmol (mean): 1.32 kBq/mL

Reference: patent publication US20230072421A1, “TARGETED RADIOPHARMACEUTICALS FOR THE DIAGNOSIS AND TREATMENT OF PROSTATE CANCER” (Bayer AS, priority 2019, published 2023)
